Experimental findings from US20050004218A1, “Vaccenic acid” (priority 2003, published 2005) are described below.

For one data set, the system named is mammary tumors. Briefly: Bioassay of mammary cancer prevention (MNU-induced mammary carcinogenesis). The data set is classed as in vivo, Female Sprague-Dawley rats. Particulars: CLA 0.05-0.37% (treatments A-D); vaccenic acid 0.73-1.6% (treatments E-G). The protocol:
(§1) Protocol of animal treatment. Female Sprague-Dawley rats were purchased from Charles River Breeding Laboratories (Raleigh, N.C.) at 45 days of age and all subsequent procedures were approved by Roswell Park Cancer Institute Animal Care and Use Committee. Rats were fed the AIN-76 basal diet for 1 week to acclimatize them to the powdered diet. All animals were injected with a single dose of methylnitrosourea (MNU: 50 mg/kg body weight) intraperitoneally at 52 days of age for the induction of mammary tumors. Immediately after MNU administration, a total of 210 rats were divided into 7 groups of 30 each and maintained on different dietary treatments for the following 24 weeks. Throughout this period, rats were palpated weekly to determine the appearance, size, and location of mammary tumors. The experiment was terminated at 24 weeks after MNU administration. All tumors were excised and fixed for histological examination and only confirmed carcinomas are reported in data summaries. Randomly-selected subsets of nine rats from each treatment were necropsied. The tumor-free inguinal mammary fat pad, a portion of the liver, and plasma were retrieved. […]
(§2) Statistical analyses. Fatty acid composition data were analyzed statistically by the General Linear Model procedure of SAS (SAS Inc., Cary, N.C.). […]

The nature of data set [1]: Fatty acid analysis of liver, plasma and mammary fat pad lipids (Example 1). In kind it is in vivo, Female Sprague-Dawley rats. The protocol:
as §1, with “administration.” for “administration. All tumors were excised and fixed for histological examination and only confirmed carcinomas are reported in data summaries. Randomly-selected subsets of nine rats from each treatment were necropsied. The tumor-free inguinal mammary fat pad, a portion of the liver, and plasma were retrieved.”
Fatty acid analysis. […] However, because these typically yielded far less lipid, quantities of all reagents for methylation were adjusted to compensate for the reduced yield.
Fatty acid methyl esters were analyzed by gas chromatography (Hewlett Packard GC system 6890+with flame ionization detector) using a CP-Sil 88 capillary column (100 m×0.25 mm i.d. with 0.2 μm film thickness; Varian Inc.). […]
as §2

Structures are written as SMILES.

With `CCCCCC/C=C/CCCCCCCCCC(=O)O` [vaccenic acid, trans-11 octadecenoic acid], the “Effect of increasing dietary intake on tumor incidence (in words)” value in the data set on mammary tumors is listed as “distinct inhibitory response to vaccenic acid which was dose-dependent”. Further, the “Tissue and plasma concentrations of vaccenic acid with increasing intake (in words)” value in data set [1] (FIG. 1) was “increased”. In addition, the “Content of cis-9, trans-11 CLA within each tissue with increasing supply of vaccenic acid (in words)” value in data set [1] (liver, plasma, mammary fat pad, FIG. 3) was “linearly increased”.
Regarding `CCCCCC/C=C/C=C\CCCCCCCC(=O)O` [cis-9, trans-11 CLA, cis-9, trans-11 octadecadienoic acid, reference compound], the “Effect of increasing dietary intake on tumor incidence (in words)” value in the data set with mammary tumors is listed as “the decrease was not statistically significant”.
